Measured values taken from patent publication US20230355622A1, “METHODS OF CHEMOVACCINATION AGAINST PLASMODIUM INFECTIONS” (Merck Sharp & Dohme LLC, priority 2020, published 2023).

tested on: parasite; experiment: Parasite LDH growth assay (Parasite Assay), antiparasite potency; type: cell-based; conditions: 72 h, parasite LDH growth assay, ring stage parasites, 72 hours incubation at 37° C.; read-out: EC50
Protocol: Assessing Antiparasite Potency in a Parasite LDH Growth Assay (Parasite Assay)
The parasite stock was maintained at 4% haematocrit in RPMI-Hepes media buffered with sodium bicarbonate and supplemented with 5% heat inactivated human serum and 0.5% albumax.
On the day of assay set up, a blood smear of the parasite culture was Giemsa stained and counted. The parasitemia was adjusted to 0.7% rings and the haematocrit was diluted to 2% in RPMI-Hepes media buffered with sodium bicarbonate and supplemented with 5% heat inactivated human serum and 0.5% albumax. 30 ul of diluted parasites are then added into 10 ul of media+compound in pre-prepared Greiner TC assay plates. Parasite assay plates were placed in gassed humidified boxes in single layer and allowed to incubate at 37° C. for 72 hours. After 72 hours growth, assay plates are sealed with parafilm and frozen flat, in single file at −80° C. overnight. On the following day, assay plates are allowed to thaw at room temperature for 4 hours to which an LDH assay is performed to measure parasite growth.

Compound	EC50
CCC1(CC)CC(=O)N([C@@H]2CCOc3ccc(C(=O)N[C@@H]4c5cc(F)ccc5OC(C)(C)[C@H]4O)cc32)C(=N)N1 [Example 25A, (R)-4-(4,4-diethyl-2-imino-6-oxotetrahydropyrimidin-1(2H)-yl)-N-((3S,4R)-6-fluoro-3-hydroxy-2,2-dimethylchroman-4-yl)chromane-6-carboxamide]	0.5 nM
CC1(C)CC(=O)N([C@@H]2CCc3ccc(C(=O)N[C@H]4CC(C)(C)Oc5ccccc54)cc32)C(=N)N1 [Example 84, (3R)-N-[(4S)-2,2-dimethylchroman-4-yl]-3-(2-imino-4,4-dimethyl-6-oxo-hexahydropyrimidin-1-yl)indane-5-carboxamide]	0.9 nM
CCC1(CC)CC(=O)N([C@H]2c3cc(C(=O)N[C@H]4c5ccccc5C(F)(F)[C@@H]4O)ccc3O[C@@]2(C)COC)C(=N)N1 [Example 291, (2R,3S)-3-(4,4-diethyl-2-imino-6-oxo-hexahydropyrimidin-1-yl)-N-[(1S,2R)-3,3-difluoro-2-hydroxy-indan-1-yl]-2-(methoxymethyl)-2-methyl-3H-benzofuran-5-carboxamide]	240 nM
CCC1(CC)CC(=O)N([C@H]2c3cc(C(=O)N[C@@H]4c5ccccc5C[C@H]4O)ccc3OC[C@@H]2C)C(=N)N1 [Example 120, (3R,4R)-4-(4,4-diethyl-2-imino-6-oxo-hexahydropyrimidin-1-yl)-N-[(1R,2R)-2-hydroxyindan-1-yl]-3-methyl-chromane-6-carboxamide]	0.8 nM
CCC1(CC)CC(=O)N([C@H]2CCS(=O)(=O)c3ccc(C(=O)N[C@@H]4c5ccccc5C[C@H]4O)cc32)C(=N)N1 [Example 223, (4S)-4-(4,4-diethyl-2-imino-6-oxo-hexahydropyrimidin-1-yl)-N-[(1R,2R)-2-hydroxyindan-1-yl]-1,1-dioxo-3,4-dihydro-2H-thiochromene-6-carboxamide]	300 nM
CCC1(CC)CC(=O)N([C@H]2c3cc(C(=O)N[C@@H]4c5ccccc5OC(C)(C)[C@H]4O)ccc3OC[C@]2(C)OC)C(=N)N1 [Example 296, (3R,4S)-4-(4,4-diethyl-2-imino-6-oxo-hexahydropyrimidin-1-yl)-N-[(3S,4R)-3-hydroxy-2,2-dimethyl-chroman-4-yl]-3-methoxy-3-methyl-chromane-6-carboxamide]	0.3 nM
CCC1(CC)CC(=O)N([C@@H]2CC3(COC3)Oc3ccc(C(=O)N[C@@H]4c5ccccc5C[C@H]4O)cc32)C(=N)N1 [Example 23A, (R)-4-(4,4-diethyl-2-imino-6-oxotetrahydropyrimidin-1(2H)-yl)-N-((1R,2R)-2-hydroxy-2,3-dihydro-1H-inden-1-yl)spiro[chromane-2,3′-oxetane]-6-carboxamide]	5 nM
CC[C@]1(C)CC(=O)N([C@H]2c3cc(C(=O)N[C@@H]4c5ccccc5OC(C)(C)[C@H]4O)ccc3OCC2(C)OC)C(=N)N1 (stereo partly drawn) [Example 284, 4-[(4R)-4-ethyl-2-imino-4-methyl-6-oxo-hexahydropyrimidin-1-yl]-N-[(3S,4R)-3-hydroxy-2,2-dimethyl-chroman-4-yl]-3-methoxy-3-methyl-chromane-6-carboxamide]	8.5 nM
CC1(C)CC(=O)N([C@@H]2CCOc3ccc(C(=O)N[C@@H]4c5ccccc5OC(C)(C)[C@@]4(C)O)cc32)C(=N)N1 [Example 172, (4R)-N-[(3S,4R)-3-hydroxy-2,2,3-trimethyl-chroman-4-yl]-4-(2-imino-4,4-dimethyl-6-oxo-hexahydropyrimidin-1-yl)chromane-6-carboxamide]	0.9 nM
CCC1(CC)CC(=O)N([C@H]2c3cc(C(=O)N[C@@H]4c5ccccc5OC(C)(C)[C@H]4O)ccc3OC[C@H]2C)C(=N)N1 [Example 241, (3S,4R)-4-(4,4-diethyl-2-imino-6-oxo-hexahydropyrimidin-1-yl)-N-[(3S,4R)-3-hydroxy-2,2-dimethyl-chroman-4-yl]-3-methyl-chromane-6-carboxamide]	0.4 nM
CCC1(CC)CC(=O)N([C@H]2c3cc(C(=O)N[C@@H]4c5ccccc5OC[C@@]4(C)O)ccc3CC[C@@H]2OC)C(=N)N1 [Example 247, (3S,4S)-4-(4,4-diethyl-2-imino-6-oxo-hexahydropyrimidin-1-yl)-N-[(3S,4R)-3-hydroxy-3-methyl-chroman-4-yl]-3-methoxy-tetralin-6-carboxamide]	4.5 nM
CC[C@]1(C)CC(=O)N([C@@H]2CCOc3ccc(C(=O)N[C@@H]4c5cc(F)ccc5OC(C)(C)[C@H]4O)cc32)C(=N)N1 [Example 224, (4R)-4-[(4R)-4-ethyl-2-imino-4-methyl-6-oxo-hexahydropyrimidin-1-yl]-N-[(3S,4R)-6-fluoro-3-hydroxy-2,2-dimethyl-chroman-4-yl]chromane-6-carboxamide]	0.3 nM
C[C@@H]1Cc2ccc(C(=O)N[C@@H]3c4ccccc4OC(C)(C)[C@H]3O)cc2[C@@H]1N1C(=N)NC(C)(C)CC1=O [Example 135, (2R,3R)-N-[(3S,4R)-3-hydroxy-2,2-dimethyl-chroman-4-yl]-3-(2-imino-4,4-dimethyl-6-oxo-hexahydropyrimidin-1-yl)-2-methyl-indane-5-carboxamide]	0.9 nM
CC[C@]1(C)CC(=O)N([C@@H]2C[C@@H](C)c3ccc(C(=O)N[C@@H]4c5ccccc5OC[C@@]4(C)O)cc32)C(=N)N1 [Example 131, (1R,3R)-3-[(4R)-4-ethyl-2-imino-4-methyl-6-oxo-hexahydropyrimidin-1-yl]-N-[(3S,4R)-3-hydroxy-3-methyl-chroman-4-yl]-1-methyl-indane-5-carboxamide]	2 nM
CCC1(CC)CC(=O)N([C@@H]2CCOc3ccc(C(=O)N[C@H]4CC(C)(C)Oc5ccccc54)nc32)C(=N)N1 [Example 31B, (R)-4-(4,4-diethyl-2-imino-6-oxotetrahydropyrimidin-1(2H)-yl)-N-((S)-2,2-dimethylchroman-4-yl)-3,4-dihydro-2H-pyrano[3,2-b]pyridine-6-carboxamide]	1 nM
CC1(C)CC(=O)N([C@@H]2CC(F)(F)c3ccc(C(=O)N[C@@H]4c5ccccc5OC(C)(C)[C@H]4O)cc32)C(=N)N1 [Example 199, (3R)-1,1-difluoro-N-[(3S,4R)-3-hydroxy-2,2-dimethyl-chroman-4-yl]-3-(2-imino-4,4-dimethyl-6-oxo-hexahydropyrimidin-1-yl)indane-5-carboxamide]	1.1 nM
CCC1(CC)CC(=O)N([C@@H]2C[C@H](OC)c3ccc(C(=O)N[C@@H]4c5ccccc5C[C@@]4(C)O)cc32)C(=N)N1 [Example 158, (1S,3R)-3-(4,4-diethyl-2-imino-6-oxo-hexahydropyrimidin-1-yl)-N-[(1R,2R)-2-hydroxy-2-methyl-indan-1-yl]-1-methoxy-indane-5-carboxamide]	0.9 nM
CC[C@]1(C)CC(=O)N([C@@H]2C[C@@H](C)c3ccc(C(=O)N[C@@H]4c5ccccc5OC(C)(C)[C@H]4O)cc32)C(=N)N1 [Example 171, (1R,3R)-3-[(4R)-4-ethyl-2-imino-4-methyl-6-oxo-hexahydropyrimidin-1-yl]-N-[(3S,4R)-3-hydroxy-2,2-dimethyl-chroman-4-yl]-1-methyl-indane-5-carboxamide]	0.7 nM
CC[C@]1(C)CC(=O)N([C@H]2c3cc(C(=O)N[C@@H]4c5ccccc5C[C@@]4(C)O)ccc3OC[C@@H]2COC)C(=N)N1 [Example 202, (3S,4R)-4-[(4R)-4-ethyl-2-imino-4-methyl-6-oxo-hexahydropyrimidin-1-yl]-N-[(1R,2R)-2-hydroxy-2-methyl-indan-1-yl]-3-(methoxymethyl)chromane-6-carboxamide]	0.8 nM

same assay, conditions: parasite LDH growth assay, ring stage parasites, 72 hours incubation at 37° C.; read-out: EC50

Compound	EC50
CCC1(CC)CC(=O)N([C@@H]2CC(COC)Oc3ccc(C(=O)N[C@H]4CC(C)(C)Oc5ccccc54)cc32)C(=N)N1 (stereo partly drawn) [Example 16A, (4R)-4-(4,4-diethyl-2-imino-6-oxotetrahydropyrimidin-1(2H)-yl)-N-((S)-2,2-dimethylchroman-4-yl)-2-(methoxymethyl)chromane-6-carboxamide]	0.6 nM
CCC1(CC)CC(=O)N(C2c3cc(C(=O)N[C@@H]4c5ccccc5OC(C)(C)[C@H]4O)ccc3CC2OC)C(=N)N1 (single isomer, unassigned) [Example 251A]	0.4 nM
CCC1(CC)CC(=O)N([C@H]2c3cc(C(=O)N[C@@H]4c5ccccc5OC(C)(C)[C@H]4O)ccc3OCC2OC)C(=N)N1 (stereo partly drawn) [Example 67B, (3R,4S)-4-(4,4-diethyl-2-imino-6-oxotetrahydropyrimidin-1(2H)-yl)-N-((3S,4R)-3-hydroxy-2,2-dimethylchroman-4-yl)-3-methoxychromane-6-carboxamide]	0.8 nM
CCC1(CC)CC(=O)N([C@@H]2CCS(=O)(=O)c3ccc(C(=O)N[C@H]4CC(C)(C)Oc5ccccc54)cc32)C(=N)N1 [Example 289, (4R)-4-(4,4-diethyl-2-imino-6-oxo-hexahydropyrimidin-1-yl)-N-[(4S)-2,2-dimethylchroman-4-yl]-1,1-dioxo-3,4-dihydro-2H-thiochromene-6-carboxamide]	0.6 nM
CCC1(CC)CC(=O)N([C@H]2c3cc(C(=O)N[C@H]4CC(C)(C)Oc5ccccc54)ccc3OC2(C)COC)C(=N)N1 (stereo partly drawn) [Example 74A, (2S,3S)-3-(4,4-diethyl-2-imino-6-oxotetrahydropyrimidin-1(2H)-yl)-N-((S)-2,2-dimethylchroman-4-yl)-2-(methoxymethyl)-2-methyl-2,3-dihydrobenzofuran-5-carboxamide]	0.3 nM
CCC1(CC)CC(=O)N([C@@H]2CCOc3ccc(C(=O)NC4c5cc(F)ccc5OCC4(C)O)cc32)C(=N)N1 (stereo partly drawn) [Example 226D, (4R)-4-(4,4-diethyl-2-imino-6-oxo-hexahydropyrimidin-1-yl)-N-(6-fluoro-3-hydroxy-3-methyl-chroman-4-yl)chromane-6-carboxamide]	1 nM
